# Measurements published in ChEMBL document CHEMBL4371033, “Highly Potent and Selective Plasmin Inhibitors Based on the Sunflower Trypsin Inhibitor-1 Scaffold Attenuate Fibrinolysis in Plasma” (J Med Chem, 2019).
# Residues, ends and D or L forms follow the SMILES beside them.
# Biological target: Plasminogen (Homo sapiens, UniProt P00747)
# Test: Inhibition of human plasmin using Ac-RM(O2)YR-pNA as substrate after 30 mins
# Plasminogen, sequence (P00747 97-580 limits assumed): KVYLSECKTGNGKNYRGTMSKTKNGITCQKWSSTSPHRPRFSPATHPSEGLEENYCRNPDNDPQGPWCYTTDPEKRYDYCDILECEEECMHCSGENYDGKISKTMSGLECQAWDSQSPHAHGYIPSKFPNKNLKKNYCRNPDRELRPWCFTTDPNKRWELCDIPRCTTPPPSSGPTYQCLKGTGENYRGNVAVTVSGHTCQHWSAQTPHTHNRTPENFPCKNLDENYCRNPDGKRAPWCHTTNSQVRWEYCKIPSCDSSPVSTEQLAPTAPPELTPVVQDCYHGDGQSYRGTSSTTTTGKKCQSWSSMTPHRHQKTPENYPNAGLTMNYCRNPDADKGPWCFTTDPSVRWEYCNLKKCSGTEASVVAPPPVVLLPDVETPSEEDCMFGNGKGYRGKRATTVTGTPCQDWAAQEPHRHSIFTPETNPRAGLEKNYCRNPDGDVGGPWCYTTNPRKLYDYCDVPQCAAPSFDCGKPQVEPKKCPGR
# Plasminogen, sequence (P00747 581-810 limits assumed): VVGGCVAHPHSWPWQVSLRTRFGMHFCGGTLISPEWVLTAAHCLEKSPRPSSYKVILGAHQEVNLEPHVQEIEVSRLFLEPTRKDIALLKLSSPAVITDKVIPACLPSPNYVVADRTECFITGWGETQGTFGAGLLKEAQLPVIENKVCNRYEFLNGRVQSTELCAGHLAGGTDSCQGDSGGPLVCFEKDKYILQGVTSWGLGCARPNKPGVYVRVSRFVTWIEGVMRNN
row,Ki,SMILES
1,8.3 nM,"CC[C@H](C)[C@@H]1NC(=O)[C@@H]2CCCN2C(=O)[C@@H]2CCCN2C(=O)[C@H](CCCCN)NC(=O)[C@H](CO)NC(=O)[C@H](CCCNC(=N)N)NC(=O)[C@H](Cc2ccc(O)cc2)NC(=O)[C@@H]2CSSC[C@H](NC1=O)C(=O)N[C@@H](Cc1ccccc1)C(=O)N1CCC[C@H]1C(=O)N[C@@H](CC(=O)O)C(=O)NCC(=O)N[C@@H](CCCNC(=N)N)C(=O)N2 (HELM PEPTIDE1{C.F.P.D.G.R.C.Y.R.S.K.P.P.I}$PEPTIDE1,PEPTIDE1,1:R3-7:R3|PEPTIDE1,PEPTIDE1,1:R1-14:R2$$$V2.0)"
2,1.8 nM,"N=C(N)NCCC[C@@H]1NC(=O)CNC(=O)[C@H](CC(=O)O)NC(=O)[C@@H]2CCCN2C(=O)[C@H](Cc2ccccc2)NC(=O)[C@@H]2CSSC[C@H](NC1=O)C(=O)N[C@@H](Cc1ccc(O)cc1)C(=O)N[C@@H](CCCCN)C(=O)N[C@@H](CO)C(=O)N[C@@H](CCCCN)C(=O)N1CCC[C@H]1C(=O)N1CCC[C@H]1C(=O)N[C@@H](CCC(N)=O)C(=O)N2 (HELM PEPTIDE1{C.F.P.D.G.R.C.Y.K.S.K.P.P.Q}$PEPTIDE1,PEPTIDE1,1:R3-7:R3|PEPTIDE1,PEPTIDE1,1:R1-14:R2$$$V2.0)"
3,4.7 nM,"N=C(N)NCCC[C@@H]1NC(=O)CNC(=O)[C@H](CC(=O)O)NC(=O)[C@@H]2CCCN2C(=O)[C@H](Cc2ccccc2)NC(=O)[C@@H]2CSSC[C@H](NC1=O)C(=O)N[C@@H](Cc1ccc(O)cc1)C(=O)N[C@@H](CCCCN)C(=O)N[C@@H](CO)C(=O)N[C@@H](CCCCN)C(=O)N1CCC[C@H]1C(=O)N1CCC[C@H]1C(=O)N[C@@H](CCCNC(=N)N)C(=O)N2 (HELM PEPTIDE1{C.F.P.D.G.R.C.Y.K.S.K.P.P.R}$PEPTIDE1,PEPTIDE1,1:R3-7:R3|PEPTIDE1,PEPTIDE1,1:R1-14:R2$$$V2.0)"
4,120 nM,"CC[C@H](C)[C@@H]1NC(=O)[C@@H]2CCCN2C(=O)[C@@H]2CCCN2C(=O)[C@H]([C@@H](C)CC)NC(=O)[C@H](CO)NC(=O)[C@H](CCCNC(=N)N)NC(=O)[C@H]([C@@H](C)O)NC(=O)[C@@H]2CSSC[C@H](NC1=O)C(=O)N[C@@H](Cc1ccccc1)C(=O)N1CCC[C@H]1C(=O)N[C@@H](CC(=O)O)C(=O)NCC(=O)N[C@@H](CCCNC(=N)N)C(=O)N2 (HELM PEPTIDE1{C.F.P.D.G.R.C.T.R.S.I.P.P.I}$PEPTIDE1,PEPTIDE1,1:R3-7:R3|PEPTIDE1,PEPTIDE1,1:R1-14:R2$$$V2.0)"
5,16 nM,"CC[C@H](C)[C@@H]1NC(=O)[C@@H]2CCCN2C(=O)[C@@H]2CCCN2C(=O)[C@H](CCCNC(=N)N)NC(=O)[C@H](CO)NC(=O)[C@H](CCCNC(=N)N)NC(=O)[C@H](Cc2ccc(O)cc2)NC(=O)[C@@H]2CSSC[C@H](NC1=O)C(=O)N[C@@H](Cc1ccccc1)C(=O)N1CCC[C@H]1C(=O)N[C@@H](CC(=O)O)C(=O)NCC(=O)N[C@@H](CCCNC(=N)N)C(=O)N2 (HELM PEPTIDE1{C.F.P.D.G.R.C.Y.R.S.R.P.P.I}$PEPTIDE1,PEPTIDE1,1:R3-7:R3|PEPTIDE1,PEPTIDE1,1:R1-14:R2$$$V2.0)"
6,2.5 nM,"N=C(N)NCCC[C@@H]1NC(=O)CNC(=O)[C@H](CC(=O)O)NC(=O)[C@@H]2CCCN2C(=O)[C@H](Cc2ccccc2)NC(=O)[C@@H]2CSSC[C@H](NC1=O)C(=O)N[C@@H](Cc1ccc(O)cc1)C(=O)N[C@@H](CCCCN)C(=O)N[C@@H](CO)C(=O)N[C@@H](CCCCN)C(=O)N1CCC[C@H]1C(=O)N1CCC[C@H]1C(=O)N[C@@H](CCCCN)C(=O)N2 (HELM PEPTIDE1{C.F.P.D.G.R.C.Y.K.S.K.P.P.K}$PEPTIDE1,PEPTIDE1,1:R3-7:R3|PEPTIDE1,PEPTIDE1,1:R1-14:R2$$$V2.0)"
7,2 nM,"CC[C@H](C)[C@@H]1NC(=O)[C@@H]2CCCN2C(=O)[C@@H]2CCCN2C(=O)[C@H](CCCNC(=N)N)NC(=O)[C@H](CO)NC(=O)[C@H](CCCCN)NC(=O)[C@H]([C@@H](C)O)NC(=O)[C@@H]2CSSC[C@H](NC1=O)C(=O)N[C@@H](Cc1ccccc1)C(=O)N1CCC[C@H]1C(=O)N[C@@H](CC(=O)O)C(=O)NCC(=O)N[C@@H](CCCNC(=N)N)C(=O)N2 (HELM PEPTIDE1{C.F.P.D.G.R.C.T.K.S.R.P.P.I}$PEPTIDE1,PEPTIDE1,1:R3-7:R3|PEPTIDE1,PEPTIDE1,1:R1-14:R2$$$V2.0)"
8,0.66 nM,"CC[C@H](C)[C@@H]1NC(=O)[C@@H]2CCCN2C(=O)[C@@H]2CCCN2C(=O)[C@H](CCCCN)NC(=O)[C@H](CO)NC(=O)[C@H](CCCCN)NC(=O)[C@H](Cc2c[nH]c3ccccc23)NC(=O)[C@@H]2CSSC[C@H](NC1=O)C(=O)N[C@@H](Cc1ccccc1)C(=O)N1CCC[C@H]1C(=O)N[C@@H](CC(=O)O)C(=O)NCC(=O)N[C@@H](CCCNC(=N)N)C(=O)N2 (HELM PEPTIDE1{C.F.P.D.G.R.C.W.K.S.K.P.P.I}$PEPTIDE1,PEPTIDE1,1:R3-7:R3|PEPTIDE1,PEPTIDE1,1:R1-14:R2$$$V2.0)"
9,0.61 nM,"CC[C@H](C)[C@@H]1NC(=O)[C@@H]2CCCN2C(=O)[C@@H]2CCCN2C(=O)[C@H](CCCCN)NC(=O)[C@H](CO)NC(=O)[C@H](CCCCN)NC(=O)[C@H](Cc2ccccc2)NC(=O)[C@@H]2CSSC[C@H](NC1=O)C(=O)N[C@@H](Cc1ccccc1)C(=O)N1CCC[C@H]1C(=O)N[C@@H](CC(=O)O)C(=O)NCC(=O)N[C@@H](CCCNC(=N)N)C(=O)N2 (HELM PEPTIDE1{C.F.K.S.K.P.P.I.C.F.P.D.G.R}$PEPTIDE1,PEPTIDE1,1:R3-9:R3|PEPTIDE1,PEPTIDE1,1:R1-14:R2$$$V2.0)"
10,0.66 nM,"N=C(N)NCCC[C@@H]1NC(=O)CNC(=O)[C@H](CC(=O)O)NC(=O)[C@@H]2CCCN2C(=O)[C@H](Cc2ccccc2)NC(=O)[C@@H]2CSSC[C@H](NC1=O)C(=O)N[C@@H](Cc1ccc(O)cc1)C(=O)N[C@@H](CCCCN)C(=O)N[C@@H](CO)C(=O)N[C@@H](CCCCN)C(=O)N1CCC[C@H]1C(=O)N1CCC[C@H]1C(=O)N[C@@H](CC(N)=O)C(=O)N2 (HELM PEPTIDE1{C.F.P.D.G.R.C.Y.K.S.K.P.P.N}$PEPTIDE1,PEPTIDE1,1:R3-7:R3|PEPTIDE1,PEPTIDE1,1:R1-14:R2$$$V2.0)"
11,1.1 nM,"CC[C@H](C)[C@@H]1NC(=O)[C@@H]2CCCN2C(=O)[C@@H]2CCCN2C(=O)[C@H](CCCNC(=N)N)NC(=O)[C@H](CO)NC(=O)[C@H](CCCCN)NC(=O)[C@H](Cc2ccc(O)cc2)NC(=O)[C@@H]2CSSC[C@H](NC1=O)C(=O)N[C@@H](Cc1ccccc1)C(=O)N1CCC[C@H]1C(=O)N[C@@H](CCC(=O)O)C(=O)NCC(=O)NC(CCCCNC(=N)N)C(=O)N2 (some centres not stated) (HELM PEPTIDE1{C.F.P.E.G.[N=C(N)NCCCCC(N[*:1])C(=O)[*:2]].C.Y.K.S.R.P.P.I}$PEPTIDE1,PEPTIDE1,1:R3-7:R3|PEPTIDE1,PEPTIDE1,1:R1-14:R2$$$V2.0)"
12,1.2 nM,"CC[C@H](C)[C@@H]1NC(=O)[C@@H]2CCCN2C(=O)[C@@H]2CCCN2C(=O)[C@H](CCCNC(=N)N)NC(=O)[C@H](CO)NC(=O)[C@H](CCCCN)NC(=O)[C@H](Cc2ccc(O)cc2)NC(=O)[C@@H]2CSSC[C@H](NC1=O)C(=O)N[C@@H](Cc1ccccc1)C(=O)N1CCC[C@H]1C(=O)N[C@@H](CC(N)=O)C(=O)NCC(=O)N[C@@H](CCCNC(=N)N)C(=O)N2 (HELM PEPTIDE1{C.F.P.N.G.R.C.Y.K.S.R.P.P.I}$PEPTIDE1,PEPTIDE1,1:R3-7:R3|PEPTIDE1,PEPTIDE1,1:R1-14:R2$$$V2.0)"
